The record followed here is ChEMBL document CHEMBL1833806, “Mapping the intestinal alpha-glucogenic enzyme specificities of starch digesting maltase-glucoamylase and sucrase-isomaltase” (Bioorg Med Chem, 2011).

Test [1] in a line: Inhibition of mouse his-tagged ctMGAM-N2 expressed in Sf9 cells assessed as amount of glucose produced using maltose as a substrate after 45 mins by glucose oxidase assay.
Test [2] can be described thus: Inhibition of mouse his-tagged ctMGAM-N20 expressed in Sf9 cells assessed as amount of glucose produced using maltose as a substrate after 45 mins by glucose oxidase assay.
A short description of test [3]: Inhibition of human ntMGAM expressed in Drosophila S2 cells assessed as amount of glucose produced using maltose as a substrate after 45 mins by glucose oxidase assay. The format is cell-based.
A short description of test [4]: Inhibition of mouse his-tagged ctSI expressed in Sf9 cells assessed as amount of glucose produced using maltose as a substrate after 45 mins by glucose oxidase assay.
Test [5] is described as follows: Inhibition of human ntSI expressed in Drosophila S2 cells assessed as amount of glucose produced using maltose as a substrate after 45 mins by glucose oxidase assay. The format is cell-based.
Test [6] is described as follows: Selectivity ratio of Ki for human ntMGAM to Ki for mouse ctMGAM-N2.
The nature of test [7]: Selectivity ratio of Ki for human ntMGAM to Ki for mouse ctMGAM-N20.
Test [8] can be described thus: Selectivity ratio of Ki for human ntMGAM to Ki for mouse ctSI.
For another test, the species on record is Homo sapiens. Description: Selectivity ratio of Ki for human ntMGAM to Ki for human ntSI.
The nature of test [9]: Selectivity ratio of Ki for human ntSI to Ki for mouse ctMGAM-N2.
The species named for test [10] is Mus musculus. Description: Selectivity ratio of Ki for mouse ctSI to Ki for mouse ctMGAM-N2.
Test [11] can be described thus: Selectivity ratio of Ki for human ntSI to Ki for mouse ctMGAM-N20.
The species named for test [12] is Mus musculus. Description: Selectivity ratio of Ki for mouse ctSI to Ki for mouse ctMGAM-N20.
Test [13] in a line: Selectivity ratio of Ki for human ntSI to Ki for mouse ctSI.
The nature of test [14]: Activity of mouse his-tagged ctMGAM-N2 expressed in Sf9 cells assessed as amount of glucose produced after 45 mins by glucose oxidase assay.
A short description of test [15]: Activity of mouse his-tagged ctMGAM-N20 expressed in Sf9 cells assessed as amount of glucose produced after 45 mins by glucose oxidase assay.
The nature of test [16]: Activity of mouse his-tagged ctSI expressed in Sf9 cells assessed as amount of glucose produced after 45 mins by glucose oxidase assay.
Test [17] is described as follows: Activity of human ntSI expressed in Drosophila S2 cells assessed as amount of glucose produced after 45 mins by glucose oxidase assay. The format is cell-based.
Test [18] is described as follows: Activity of human ntMGAM expressed in Drosophila S2 cells assessed as amount of glucose produced after 45 mins by glucose oxidase assay. The format is cell-based.
The species entered for test [19] is Mus musculus. Description: Ratio of Km for mouse ctMGAM-N20 to Km for mouse ctMGAM-N2.
A short description of test [20]: Activity of mouse his-tagged ctMGAM-N2 expressed in Sf9 cells assessed as amount of glucose produced using maltose as a substrate after 45 mins by glucose oxidase assay.
Test [21] is described as follows: Activity of mouse his-tagged ctMGAM-N20 expressed in Sf9 cells assessed as amount of glucose produced using maltose as a substrate after 45 mins by glucose oxidase assay.
The species named for test [22] is Mus musculus. Description: Selectivity ratio of Ki for mouse ctMGAM-N2 to Ki for mouse ctMGAM-N20.
The species named for test [23] is Mus musculus. Put plainly: Selectivity ratio of Ki for mouse ctMGAM-N2 to Ki for mouse ctSI.
Test [24] is filed under the species Mus musculus. Description: Selectivity ratio of Ki for mouse ctMGAM-N20 to Ki for mouse ctMGAM-N2.

Consider `OCCN1C[C@H](O)[C@@H](O)[C@H](O)[C@H]1CO` [MIGLITOL], for which the Ki in [1] was found to be 211 nM; in test [2] it was 230 nM; in test [3], 1000 nM; in [4], 130 nM; in test [5], 148 nM. The Ratio Ki (in [6]; in [7]; in test [8]; in the test filed under Homo sapiens) was 4 each time.

As to `OC[C@@H]1[C@@H](O)[C@H](O)C[S+]1C[C@@H](O)[C@@H](O)[C@H](O)[C@H](O)[C@@H](O)CO` (stereo not given in full) [DE-O-SULFONATED KOTALANOL], the Ki stood at 26 nM in [1]; 78 nM in [2]; 30 nM in test [3]; 26 nM in test [4]; 12 nM in test [5].

Take `C[C@H]1O[C@H](O[C@H]2[C@H](O)[C@@H](O)[C@@H](O[C@H]3[C@H](O)[C@@H](O)C(O)O[C@@H]3CO)O[C@@H]2CO)[C@H](O)[C@@H](O)[C@@H]1N[C@H]1C=C(CO)[C@@H](O)[C@H](O)[C@H]1O` (stereo not given in full) [ACARBOSE]: the Ki was 9 nM in test [1]; 28 nM in test [2]; 62000 nM in test [3]; 246 nM in test [4]; 14000 nM in test [5]. The Ratio Ki (in [6]; in [9]; in the test filed under Mus musculus [10]; in test [7]; in [11]; in the test listed under Mus musculus [12]) was 1000 in each case. For the same compound, the Ratio Ki in [8] and in [13] was 100 throughout.

With `OC[C@H]1O[C@H](O[C@H]2[C@H](O)[C@@H](O)[C@H](O)O[C@@H]2CO)[C@H](O)[C@@H](O)[C@@H]1O` [MALTOSE], the Km in [14] worked out at 1590 µM; in test [15], 1910 µM; in [16], 2500 µM; in test [17], 7100 µM; in [18], 4300 µM; in test [4], 2500 µM. Besides, the figures for the Km in test [20] and in test [21] were 1590 µM and 1910 µM, respectively. Besides, the Ratio in the test filed under Mus musculus [19] was determined as 4.

On to `O=S(=O)([O-])O[C@@H]([C@H](O)[C@H](O)[C@@H](O)CO)[C@H](O)C[S+]1C[C@@H](O)[C@H](O)[C@H]1CO` (stereo not given in full) [KOTALANOL], for which the Ki in test [1] came out at 64 nM; in [2], 92 nM; in test [3] it was 190 nM; in test [4] it was 42 nM; in test [5] it was 600 nM.

Consider `O=S(=O)([O-])O[C@@H](CO)[C@H](O)C[S@+]1C[C@@H](O)[C@H](O)[C@H]1CO` [SALACINOL], for which the Ki came to 213 nM in [1], 58 nM in [2], 47 nM in test [4] and 277 nM in test [5]. Further, the Ratio Ki in [7] amounted to 5; in [11], 5; in test [8] it was 5; in [13] it was 5; in the test filed under Mus musculus [22] it was 4; in the test listed under Mus musculus [23], 5.

Regarding `O=S(=O)([O-])O[C@@H](CO)[C@H](O)C[Se+]1C[C@@H](O)[C@H](O)[C@H]1CO` (stereo not given in full) [BLINTOL], the Ki in test [1] came to 18 nM; in test [2], 13 nM; in [3] it was 490 nM; in test [4], 29 nM; in test [5], 160 nM. The Ratio Ki (in test [6]; in [9]; in the test filed under Mus musculus [10]; in the test listed under Mus musculus [24]) was 10 throughout.
